This is an account of results in article PMC7115498 (European Journal of Medicinal Chemistry, 2009).

The test system of one series is Coxsakie virus B4. Nature of the series: organism not typed. The series is classed as cell-based. The settings on record: Vero.
For a further series, the system named is Parainfluenza-3 virus. Nature of the series: organism not typed. The format is cell-based. The settings on record: Vero.
A further series concerns Reovirus-1. Nature of the series: organism not typed. The following applies: Vero. The series is classed as cell-based.
The test system of the next series is MT-4 cells. The settings on record: MTT method. (Tetrazolium dyes change colour on reduction, which living cells bring about.)
Series [1] is described as follows: in vitro. The settings on record: human, CC50, MT-4 cells, MTT method; IIIB experiments P3.4401 and P3.4406.
A further series deals with HIV-1 IIIB strain. The series is classed as cell-based. The following applies: for IC50: MTT method, Exp_nr P3.4401 and P3.4406.
The next series deals with HIV-1 ROD strain. The format is cell-based. The following applies: for IC50: MTT method, Exp_nr P3.4402 and P3.4407.
In series [2] the test system is Herpes simplex virus-1TK- KOS ACV. Nature of the series: organism not typed. The series is classed as cell-based. The following applies: HEL.
A short description of series [3]: Partition coefficient by stir-flask method, octanol-water system. The following applies: octanol / 0.1 NaOH solution, 25 °C, UV.
A further series deals with E. coli. Nature of the series: Antibacterial microdilution broth susceptibility test. The following applies: 24 h, Gram-negative E. coli, 37 °C, no turbidity. The series is classed as cell-based, Escherichia coli. For orientation: Dilution methods test growth across graded concentrations, often in twofold steps.
In the next series the test system is HPV. The following applies: ref Singh et al. unpublished results; cited from earlier work.
Series [4] has as its system Gram-positive cocci and Gram-negative bacilli. Nature of the series: Antibacterial activity over all strains tested. The series is classed as cell-based. The settings on record: in vitro.
A short description of series [5]: in vitro. The settings on record: African green monkey, CC50, Vero cells, MTS assay.
For a further series, the system named is S. viridans. Nature of the series: Antibacterial microdilution broth susceptibility test. The format is cell-based, Streptococcus viridans. The settings on record: Gram-positive S. viridans; 37 °C, 24 h, no turbidity.
For another series, the system named is P. miraleilis. The series is described as above. The series is classed as cell-based, Proteus mirabeilis. The settings on record: Gram-negative P. miraleilis; 37 °C, 24 h, no turbidity.
For a further series, the system named is K. pneumoniae. The description is as above. The following applies: Gram-negative K. pneumoniae; 37 °C, 24 h, no turbidity. The series is classed as cell-based, Klebsiella pneumoniae.
In another series the test system is CRFK cells. The settings on record: MTS assay.
The subject of a further series is Feline herpes virus. The format is cell-based. The settings on record: virus O, CRFK cells, MTS assay.
Series [6] concerns Feline corona virus (FIPV). The format is cell-based. The following applies: virus N, CRFK cells, MTS assay.
The mark [7] stands for this setting: ROD experiments P3.4402 and P3.4407.

≈ marks a conversion by molar mass, not a printed value. Read-outs that look alike come from different tables or passages of the source.

By EC50 is commonly meant the midpoint of the concentration-response curve. For the molecule `Nc1ncnc2c1ncn2C[C@H](O)CO` [(S)-DHPA, reference compound], the 50% effective concentration (EC50) in the series on Coxsakie virus B4, with Parainfluenza-3 virus and with Reovirus-1 was greater than 250000 nM throughout.

For orientation: CC50 means the concentration giving 50% cytotoxicity. As usually defined, the IC50 is the point on the concentration scale where inhibition reaches its midpoint. A low value points to greater potency in that assay. Regarding `COc1cc(/C=C/C(=O)CC(=O)/C=C/c2ccc(OC(=O)[C@H](Cc3ccccc3)NC(=O)[C@@H](N)Cc3c[nH]c4ccccc34)c(OC)c2)ccc1OC(=O)[C@H](Cc1ccccc1)NC(=O)[C@@H](N)Cc1c[nH]c2ccccc12` [Compound 2, 1,7-Bis-[(4,4-di-O-tryptophanylphenylalanine)3-methoxyphenyl]-1,6-heptadiene-3,5-dione], the cytotoxic concentration (CC50) with MT-4 cells (setting [7]) turned out to be 103 nM; in “in vitro [1]” it was 94 nM. Moreover, the 50% effective concentration (EC50) in the series on Coxsakie virus B4 was greater than 19 nM; in series [2] it was greater than 38 nM; with Parainfluenza-3 virus, greater than 38 nM; with Reovirus-1 it was greater than 19 nM. The “SI (Selectivity index: CC50/IC50 ratio)” value in the series on HIV-1 IIIB strain and with HIV-1 ROD strain was less than 1 throughout. In addition, the IC50 in the series with HIV-1 IIIB strain (HIV-1 IIIB, MT-4 cells) is greater than 93 nM; with HIV-1 ROD strain (HIV-1 ROD, MT-4 cells), greater than 103 nM. In addition, the “P (partition coefficient), stir-flask method” value (shortened to “P (partition coefficient)”) in [3] is on record as 5.50 × 10^2.

As a reminder, the MIC is the least concentration at which growth counts as inhibited. Regarding `CCCCCCCCCC(=O)Oc1ccc(/C=C/C(=O)CC(=O)/C=C/c2ccc(OC(=O)CCCCCCCCC)c(OC)c2)cc1OC` [Compound 3, 1,7-Bis-[(4,4-di-O-decanoyl)3-methoxyphenyl]-1,6-heptadiene-3,5-dione], it took 0.369 µM (≈ 0.25 µg/mL) to inhibit growth against E. coli (Escherichia coli) (MIC). The “P (partition coefficient)” value in series [3] is on record as 1.69 × 10^8.

Consider `CCCCCCCCCCCCCCCC(=O)Oc1ccc(/C=C/C(=O)CC(=O)/C=C/c2ccc(OC(=O)CCCCCCCCCCCCCCC)c(OC)c2)cc1OC` [Compound 4, 1,7-Bis-[(4,4-di-O-pamitoyl)3-methoxyphenyl]-1,6-heptadiene-3,5-dione], for which 0.591 µM (≈ 0.5 µg/mL) was the least that counted as inhibitory against E. coli (Escherichia coli) (MIC).

`COc1cc(/C=C/C(=O)CC(=O)/C=C/c2ccc(OC(=O)CCC(NC(=O)c3ccc(NCc4cnc5nc(N)[nH]c(=O)c5n4)cc3)C(=O)O)c(OC)c2)ccc1OC(=O)CCC(NC(=O)c1ccc(NCc2cnc3nc(N)[nH]c(=O)c3n2)cc1)C(=O)O` (stereo not drawn) [Compound 6, 1,7-Bis-[(4,4-di-O-bis-(γ,γ)-folyl)3-methoxyphenyl]-1,6-heptadiene-3,5-dione]: the CC50 in the series on MT-4 cells (setting [7]) was determined as 50 nM. Moreover, in the series on HPV, the “Activity against HPV causing cervical cancer” value is given as “very active”. Further, the concentration for a half-maximal effect (EC50) (with Coxsakie virus B4; in series [2]; in the series on Parainfluenza-3 virus; in the series with Reovirus-1) was greater than 82 nM each time. The IC50 in the series on HIV-1 IIIB strain (HIV-1 IIIB, MT-4 cells) was greater than 46 nM; in the series on HIV-1 ROD strain (HIV-1 ROD, MT-4 cells), greater than 50 nM.

In the series with MT-4 cells (setting [7]), `COc1cc(/C=C/C(=O)C(CCOC(=O)CCC(NC(=O)c2ccc(NCc3cnc4nc(N)[nH]c(=O)c4n3)cc2)C(=O)O)C(=O)/C=C/c2ccc(O)c(OC)c2)ccc1O` (stereo not drawn) [Compound 8, 1,7-Bis-[(4-hydroxy-3-methoxyphenyl)]-1,6-heptadiene-C^4-ethyl-O-folyl-3,5-dione] came in with a CC50 of 62 nM. The EC50 (in the series with Coxsakie virus B4; in [2]; in the series with Parainfluenza-3 virus; with Reovirus-1) was greater than 11 nM each time. Further, the 50% inhibitory concentration (IC50) in the series with HIV-1 ROD strain (HIV-1 ROD, MT-4 cells) is greater than 62 nM.

For `COc1cc(/C=C/C(=O)CC(=O)/C=C/c2ccc(OCCOC(=O)CCC(NC(=O)c3ccc(NCc4cnc5nc(N)[nH]c(=O)c5n4)cc3)C(=O)O)c(OC)c2)ccc1O` (stereo not drawn) [Compound 10, 1-(4-Hydroxy-3-methoxyphenyl)-7-(4-O-ethyl-O-folyl-3-methoxyphenyl)-1,6-heptadiene-3,5-dione], the CC50 in the series with MT-4 cells (IIIB experiments P3.4401 and P3.4406) amounted to 58 nM; in the series on MT-4 cells (setting [7]), 88 nM. Further, the EC50 (in the series on Coxsakie virus B4; in series [2]; with Parainfluenza-3 virus; with Reovirus-1) was greater than 119 nM in each case. Moreover, the “SI (Selectivity index: CC50/IC50 ratio)” value is given as less than 1 in the series with HIV-1 IIIB strain (HIV-1 IIIB, MT-4 cells) and less than 1 in the series with HIV-1 ROD strain (HIV-1 ROD, MT-4 cells). Also, the IC50 in the series on HIV-1 IIIB strain (HIV-1 IIIB, MT-4 cells) was greater than 58 nM; in the series on HIV-1 ROD strain (HIV-1 ROD, MT-4 cells) it was greater than 88 nM.

Turning to `COc1cc(/C=C/C(=O)CC(=O)/C=C/c2ccc(O)c(OC)c2)ccc1O` [Curcumin, 1,7-bis(4-hydroxy-3-methoxyphenyl)-1,6-heptadiene-3,5-dione, reference compound], the EC50 in the series on Coxsakie virus B4, with Parainfluenza-3 virus and in the series on Reovirus-1 was greater than 10 nM each time. Moreover, the “MIC range over all strains” value in series [4] was 1.23 to 2.47 µM. In addition, the “P (partition coefficient)” value in series [3] was 1.70 × 10^2.

Take `NC(=O)c1ncn([C@@H]2O[C@H](CO)[C@@H](O)[C@H]2O)n1` [Ribavirin]: the EC50 in the series on Coxsakie virus B4 is greater than 250000 nM; with Reovirus-1, 250000 nM. Moreover, the CC50 in “in vitro [5]” (column J (Reovirus-1)), in the series “in vitro [5]” (column K (Sindbis virus)), in “in vitro [5]” (column L (Coxsakie virus B4)) and in “in vitro [5]” (column M (Punta toro virus)) was greater than 250000 nM throughout.

Regarding Gentamycin sulfate, the minimal inhibitory concentration (MIC) in the series with E. coli, in the series with S. viridans, with P. miraleilis and with K. pneumoniae was greater than 1.73 µM throughout.

B1: UDA: reference in Table 2 (CRFK), not defined in the paper; presumably a plant lectin (protein, UniProt P11218 24-372, looked up)
Lectin/endochitinase 1: QRCGSQGGGGTCPALWCCSIWGWCGDSEPYCGRTCENKCWSGERSDHRCGAAVGNPPCGQDRCCSVHGWCGGGNDYCSGSKCQYRCSSSVRGPRVALSGNSTANSIGNVVVTEPLFDQMFSHRKDCPSQGFYSYHSFLVAAESFPAFGTIGDVATRKREVAAFLAHISQATSGERSDVENPHAWGLCHINTTTVTENDFCTSSDWPCAAGKKYSPRGPIQLTHNFNYGLAGQAIGEDLIQNPDLVEKDPIISFKTALWFWMSQHDNKPSCHDIVLNANSAANRIPNKGVIGNIISRAFGHDDFAVRSSSIGFYKRYCDMLGVSYGHDLKYWFDNTPSSEFQRIQMRVAA
As to B1, the CC50 in the series with CRFK cells (column N (Feline corona virus FIPV)) and with CRFK cells (column O (Feline herpes virus)) was greater than 100000 nM each time. Also, the EC50 is 2900 nM in the series with Feline herpes virus and 1300 nM in series [6].
